Data set [1] relates to HBV. In words: Anti-HBV activity in vitro in HepG2.2.15 cells (extracellular HBV DNA by qPCR). In kind it is cell-based, Hepatitis B virus. Particulars: Hepatitis B virus; HepG2.2.15 cells; in-house data; read-out: EC50. In outline: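 HepG2.2.15 cells, which constitutively produce HBV, were seeded overnight and then treated for 5 days with half-log serially diluted compounds at 0.5% final DMSO. Extracellular HBV DNA in culture supernatant was extracted and quantified by qPCR.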
A general note: Real-time PCR tracks product formation cycle by cycle.

Data set [2] deals with HBV. In words: Selectivity index (CC50 value/EC50 value). Type of data set: cell-based, Hepatitis B virus. In outline: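 Ratio of CC50 to EC50, measuring antiviral activity against HBV relative to cytotoxicity in vitro; higher values indicate greater separation between viral inhibition and cell death.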
The subject of another data set is HepDE19 cells. The data set is described as follows: Cytotoxicity (CC50) in HepDE19 cells, CCK-8 cell viability. Type of data set: cell-based. In outline: (§1)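 HBV-transfected HepG2-derived HepDE19 cells grown in DMEM-F12 with 10% FBS and G418. Viability read five days after treatment by CCK-8, 2 h at 37 °C, absorbance at 450 and 630 nm.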
The nature of data set [3]: Metabolic stability study in human microsome. Type of data set: in vitro ADME. In outline:
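Human liver microsomes (0.5 mg/mL) with 1 μM compound in 100 mM phosphate pH 7.4 at 37 °C, started with 1 mM NADPH or an NADPH-regenerating system. Samples taken at 0, 3, 6, 9, 15 and 30 min, quenched in methanol. Parent remaining measured by LC-MS/MS; no-cofactor controls included.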

Data set [4] can be described thus: Lyophilisation solubility assay (Lysa). Particulars: phosphate buffer, pH 6.5, aqueous buffer, thermodynamic from solid. In kind it is physicochemical. In outline:
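Duplicate samples from 10 mM DMSO stocks are dried, redissolved in 0.05 M phosphate buffer pH 6.5, stirred 1 h, shaken 2 h and left overnight. Filtrate and its 1/10 dilution are quantified by direct UV or HPLC-UV, giving solubility in μg/mL.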

Data set [5] can be described thus: Cytotoxicity (CC50) in HepDE19 cells, CCK-8 cell viability. Particulars: human, HepDE19 cells; read-out: CC50. In kind it is cell-based. In outline: as §1

Converted amounts (≈) assume the structure as drawn. A value given as a limit tells only on which side of the number the result lay.

This note sets out measurements from patent publication US9447086B2, “6-amino acid heteroaryldihydropyrimidines for the treatment and prophylaxis of hepatitis B virus infection” (priority 2012, dated 2016).

With `COC(=O)C1=C(CN2CCOC[C@H]2C(=O)O)NC(c2nc(C)cs2)=N[C@H]1c1ccc(F)cc1Cl` [Example 17, (S)-4-[(R)-6-(2-Chloro-4-fluoro-phenyl)-5-methoxycarbonyl-2-(4-methyl-thiazol-2-yl)-3,6-dihydro-pyrimidin-4-ylmethyl]-morpholine-3-carboxylic acid], the EC50 with HBV [1] is 7 nM. Besides, the “Selectivity index (CC50/EC50)” value in the data set with HBV [2] is given as greater than 14286. This compound displayed a CC50 in the data set on HepDE19 cells greater than 100000 nM. The “Human Hepatic Clearance” value in data set [3] was found to be 0.74 mL/min/kg. The compound further registered a solubility (thermodynamic) in data set [4] greater than 673 µg/mL.

As for `CCOC(=O)C1=C(CN2CCOC[C@H]2C(=O)O)NC(c2nccs2)=N[C@H]1c1ccc(F)cc1Cl` [Example 31, (S)-4-[(R)-6-(2-Chloro-4-fluoro-phenyl)-5-ethoxycarbonyl-2-thiazol-2-yl-3,6-dihydro-pyrimidin-4-ylmethyl]-morpholine-3-carboxylic acid], the EC50 in the data set on HBV [1] was determined as 2 nM. Moreover, the “Selectivity index (CC50/EC50)” value with HBV [2] was greater than 50000. The CC50 in the data set on HepDE19 cells was greater than 100000 nM. Also, the “Human Hepatic Clearance” value in data set [3] was found to be 4.68 mL/min/kg. The compound also registered a solubility (thermodynamic) in data set [4] of 630 µg/mL (≈ 1240 µM).

Turning to `COC(=O)C1=C(CN2CCOC[C@H]2C(=O)O)NC(c2nccs2)=N[C@H]1c1cccc(F)c1Cl` [Example 47, (S)-4-[(R)-6-(2-Chloro-3-fluoro-phenyl)-5-methoxycarbonyl-2-thiazol-2-yl-3,6-dihydro-pyrimidin-4-ylmethyl]-morpholine-3-carboxylic acid], in the data set on HBV [1], the EC50 was determined as 4.4 nM. In the data set with HBV [2], the “Selectivity index (CC50/EC50)” value is on record as greater than 2273. This compound also gave a CC50 in the data set with HepDE19 cells greater than 100000 nM. Besides, in data set [3], the “Human Hepatic Clearance” value worked out at 1.46 mL/min/kg. This compound also gave a thermodynamic solubility in data set [4] greater than 660 µg/mL.

As to `O=C(OCC(F)(F)F)C1=C(CN2CCOC[C@H]2C(=O)O)NC(c2nccs2)=N[C@H]1c1ccc(F)cc1Cl` [Example 51, (S)-4-[(R)-6-(2-Chloro-4-fluoro-phenyl)-2-thiazol-2-yl-5-(2,2,2-trifluoro-ethoxycarbonyl)-3,6-dihydro-pyrimidin-4-ylmethyl]-morpholine-3-carboxylic acid], the EC50 in the data set on HBV [1] amounted to 13 nM. In the data set with HBV [2], the “Selectivity index (CC50/EC50)” value was 2117. The compound further had a CC50 in the data set on HepDE19 cells of 27000 nM. The “Human Hepatic Clearance” value in data set [3] is 0 mL/min/kg. In addition, the solubility (thermodynamic) in data set [4] was greater than 695 µg/mL.

As to `CCOC(=O)C1=C(CN2CCOC[C@H]2C(=O)O)NC(c2nccs2)=N[C@H]1c1ccc(F)cc1` [Example 54, (S)-4-[(S)-5-Ethoxycarbonyl-6-(4-fluoro-phenyl)-2-thiazol-2-yl-3,6-dihydro-pyrimidin-4-ylmethyl]-morpholine-3-carboxylic acid], the EC50 in the data set with HBV [1] was determined as 14 nM. In addition, the “Selectivity index (CC50/EC50)” value in the data set on HBV [2] is reported as 4293. For the same compound, in the data set on HepDE19 cells, half-maximal cytotoxicity (CC50) was put at 62000 nM. In addition, the “Human Hepatic Clearance” value in data set [3] is 0 mL/min/kg. The compound further gave a thermodynamic solubility in data set [4] greater than 606 µg/mL.

In the case of `CCOC(=O)C1=C(CN2CCOC[C@H]2C(=O)O)NC(c2nccs2)=N[C@H]1c1ccc(F)cc1F` [Example 58, (S)-4-[(R)-6-(2,4-Difluoro-phenyl)-5-ethoxycarbonyl-2-thiazol-2-yl-3,6-dihydro-pyrimidin-4-ylmethyl]-morpholine-3-carboxylic acid], the EC50 with HBV [1] amounted to 14 nM. Moreover, in the data set on HBV [2], the “Selectivity index (CC50/EC50)” value is reported as greater than 7353. Besides, the half-maximal cytotoxic concentration (CC50) with HepDE19 cells is greater than 100000 nM. In addition, in data set [3], the “Human Hepatic Clearance” value is reported as 1.26 mL/min/kg. This compound showed a thermodynamic solubility in data set [4] greater than 638 µg/mL.

With `CCOC(=O)C1=C(CN2CCOC[C@H]2C(=O)O)NC(c2nccs2)=N[C@H]1c1ccc(F)c(F)c1Cl` [Example 60, (S)-4-[(R)-6-(2-Chloro-3,4-difluoro-phenyl)-5-ethoxycarbonyl-2-thiazol-2-yl-3,6-dihydro-pyrimidin-4-ylmethyl]-morpholine-3-carboxylic acid], in the data set on HBV [1], the EC50 was found to be 0.6 nM. For the same compound, the “Selectivity index (CC50/EC50)” value with HBV [2] is listed as 47783. Besides, in the data set on HepDE19 cells, it took 29000 nM to reach half-maximal cytotoxicity (CC50). Further, the “Human Hepatic Clearance” value in data set [3] is given as 4.8 mL/min/kg. In addition, the thermodynamic solubility in data set [4] was greater than 703 µg/mL.

As to `CCOC(=O)C1=C(CN2CCOC[C@H]2C(=O)O)NC(c2nccs2)=N[C@H]1c1cccc(F)c1Cl` [Example 63, (S)-4-[(R)-6-(2-Chloro-3-fluoro-phenyl)-5-ethoxycarbonyl-2-thiazol-2-yl-3,6-dihydro-pyrimidin-4-ylmethyl]-morpholine-3-carboxylic acid], the EC50 in the data set on HBV [1] amounted to 0.8 nM. For the same compound, the “Selectivity index (CC50/EC50)” value in the data set on HBV [2] is on record as greater than 125000. The same compound yielded a CC50 in the data set on HepDE19 cells greater than 100000 nM. Besides, in data set [3], the “Human Hepatic Clearance” value was 1.71 mL/min/kg. Further, the solubility (thermodynamic) in data set [4] is greater than 679 µg/mL.

On to `CCOC(=O)C1=C(CN2CCOC[C@H]2C(=O)O)NC(c2nccs2)=N[C@H]1c1cccc(F)c1Br` [Example 66, (S)-4-[(R)-6-(2-Bromo-3-fluoro-phenyl)-5-ethoxycarbonyl-2-thiazol-2-yl-3,6-dihydro-pyrimidin-4-ylmethyl]-morpholine-3-carboxylic acid], for which, in the data set with HBV [1], the EC50 came to 0.7 nM. In addition, in the data set on HBV [2], the “Selectivity index (CC50/EC50)” value was found to be 135714. The compound further gave a CC50 in the data set with HepDE19 cells of 95000 nM. Moreover, the “Human Hepatic Clearance” value in data set [3] is 1.64 mL/min/kg. In data set [4], this compound yielded a solubility (thermodynamic) greater than 669 µg/mL.

Regarding `COC(=O)C1=C(CN2CCOC[C@H]2C(=O)O)NC(c2ncoc2C)=N[C@H]1c1ccc(F)cc1Cl` [Example 68, (S)-4-[(R)-6-(2-Chloro-4-fluoro-phenyl)-5-methoxycarbonyl-2-(5-methyl-oxazol-4-yl)-3,6-dihydro-pyrimidin-4-ylmethyl]-morpholine-3-carboxylic acid], the EC50 in the data set with HBV [1] came to 14 nM. Moreover, in the data set on HBV [2], the “Selectivity index (CC50/EC50)” value was greater than 7407. Moreover, in the data set on HepDE19 cells, the CC50 was greater than 100000 nM. Also, in data set [3], the “Human Hepatic Clearance” value is listed as 0.23 mL/min/kg. The solubility (thermodynamic) in data set [4] was greater than 627 µg/mL.

Consider `COC(=O)C1=C(CN2CCOC[C@H]2C(=O)O)NC(c2nccs2)=N[C@H]1c1ccc(F)c(F)c1Cl` [Example 73, (S)-4-[(R)-6-(2-Chloro-3,4-difluoro-phenyl)-5-methoxycarbonyl-2-thiazol-2-yl-3,6-dihydro-pyrimidin-4-ylmethyl]-morpholine-3-carboxylic acid], for which the EC50 in the data set on HBV [1] came to 1.2 nM. In the data set with HBV [2], the “Selectivity index (CC50/EC50)” value is reported as greater than 83333. In the data set with HepDE19 cells, this compound showed a CC50 greater than 100000 nM. In data set [3], the “Human Hepatic Clearance” value worked out at 0 mL/min/kg. For the same compound, in data set [4], the thermodynamic solubility is greater than 656 µg/mL.

`COC(=O)C1=C(CN2CCOC[C@H]2C(=O)O)NC(c2nccs2)=N[C@H]1c1ccc(F)cc1Br` [Example 81, (S)-4-[(R)-6-(2-Bromo-4-fluoro-phenyl)-5-methoxycarbonyl-2-thiazol-2-yl-3,6-dihydro-pyrimidin-4-ylmethyl]-morpholine-3-carboxylic acid]: the 50% effective concentration (EC50) in the data set with HBV [1] turned out to be 6 nM. Further, in the data set on HBV [2], the “Selectivity index (CC50/EC50)” value is on record as greater than 16667. The compound further showed a 50% cytotoxic concentration (CC50) in the data set with HepDE19 cells greater than 100000 nM. The “Human Hepatic Clearance” value in data set [3] was 5.33 mL/min/kg. In data set [4], this compound showed a solubility (thermodynamic) greater than 691 µg/mL.

For the compound `CCOC(=O)C1=C(CN2CCOC[C@H]2C(=O)O)NC(c2nccs2)=N[C@H]1c1ccccc1Cl` [Example 82, (S)-4-[(R)-6-(2-Chloro-phenyl)-5-ethoxycarbonyl-2-thiazol-2-yl-3,6-dihydro-pyrimidin-4-ylmethyl]-morpholine-3-carboxylic acid], in the data set with HBV [1], the EC50 worked out at 14 nM. In addition, in the data set with HBV [2], the “Selectivity index (CC50/EC50)” value was greater than 7194. Besides, in the data set on HepDE19 cells, the CC50 is greater than 100000 nM. Further, the “Human Hepatic Clearance” value in data set [3] is on record as 0 mL/min/kg. In data set [4], this compound showed a thermodynamic solubility greater than 618 µg/mL.

With `COC(=O)C1=C(CN2CCO[C@H](C(C)C)[C@H]2C(=O)O)NC(c2nccs2)=N[C@H]1c1ccc(F)cc1Cl` [Example 120, (2R,3S)-4-[(R)-6-(2-Chloro-4-fluoro-phenyl)-5-methoxycarbonyl-2-thiazol-2-yl-3,6-dihydro-pyrimidin-4-ylmethyl]-2-isopropyl-morpholine-3-carboxylic acid], the EC50 in the data set on HBV [1] was 4.8 nM. For the same compound, the “Selectivity index (CC50/EC50)” value in the data set on HBV [2] was 16875. The CC50 in the data set on HepDE19 cells was 81000 nM. Moreover, in data set [3], the “Human Hepatic Clearance” value came to 2.58 mL/min/kg.

Regarding `CCOC(=O)C1=C(CN2CCOC[C@H]2C(=O)O)NC(c2nccs2)=N[C@H]1c1ccccc1Br` [Example 127, (S)-4-(((R)-6-(2-Bromophenyl)-5-(ethoxycarbonyl)-2-(thiazol-2-yl)-3,6-dihydropyrimidin-4-yl)methyl)morpholine-3 carboxylic acid], the EC50 in the data set with HBV [1] was determined as 6.7 nM. Also, the “Selectivity index (CC50/EC50)” value in the data set with HBV [2] is greater than 14925. Also, the CC50 at 5 days in data set [5] is greater than 100000 nM. The “Human Hepatic Clearance” value in data set [3] is listed as 2.44 mL/min/kg. This compound also returned a thermodynamic solubility in data set [4] greater than 672 µg/mL.

For `CCOC(=O)C1=C(CN2CC(F)(F)C[C@H]2C(=O)O)NC(c2nccs2)=N[C@H]1c1ccc(Br)cc1` [Example 130, (2S)-1-[[(4S)-4-(4-Bromophenyl)-5-ethoxycarbonyl-2-(1,3-thiazol-2-yl)-1,4-dihydropyrimidin-6-yl]methyl]-4,4-difluoropyrrolidine-2-carboxylic acid], the EC50 in the data set with HBV [1] came to 6 nM. In the data set with HBV [2], the “Selectivity index (CC50/EC50)” value turned out to be 2833. Besides, in data set [5], the CC50 at 5 days was 17000 nM. The “Human Hepatic Clearance” value in data set [3] stood at 3.92 mL/min/kg. Moreover, the thermodynamic solubility in data set [4] was greater than 625 µg/mL.

For orientation: EC50 means the concentration that produces a half-maximal response. A word on the CC50: it is the concentration at which the toxic effect on the cells reaches its halfway point. A word on the solubility (thermodynamic): it is the concentration in solution at equilibrium with solid.
